Assay results as given in paper PMC11648681, “Development of machine learning models for the prediction of the skin sensitization potential of cosmetic compounds” (PeerJ, 2024).
Values joined by “and” are separate entries in the source; they are usually repeats but may differ in a detail not shown here. Identical values can stand only once. Like-named read-outs stand apart in the source and are kept apart here.

Assays:
[1] = CCK-8 cell viability of THP-1 cells after 48 h compound treatment in HaCaT/THP-1 co-culture; format: cell-based, human; conditions: human
Experimental: (§1) The co-culture system was set up according to the following described method. […] THP-1 cells were collected, centrifuged, and re-suspended in fresh RPMI-1640 medium supplemented with 10% FBS at 2 × 10^6 cells/mL. Then cells are distributed into HaCaT-seeded 96 wells plate with 80 μL (1.6 × 10^5 cells/well).
(§2) The compounds listed in Table 1 were dissolved in DMSO to create stock solutions with a concentration of 500 mg/mL. Eleven concentrations were subsequently prepared using two-fold serial dilutions. These stock solutions were then further diluted 250-fold in RPMI-1640 + 10% FBS medium. Finally, 80 μL of the prepared solutions were added 1:1 to the treated 96-well plates and incubated for 48 h at 37 °C and 5% CO2.
(§3) After 48 h of treatment, the treated cells were collected 100 μL cells per well. The supernatant medium was added 10 μL of CCK-8 (Life-iLab, Shanghai, China) solution to each well and incubated the plate in the incubator for 2–4 h. THP-1 cell viability was determined using standard calculation methods.
(§4) The cytotoxicity of 15 test compounds listed in Table 1 was assessed using THP-1 cells across a concentration range of 1,000 to 3.9 μg/mL. Cell viability was assessed after 48 h of treatment using the CCK-8 assay.

THP-1 cells = test: as above; format: cell-based, human; conditions: for Cell viability / final concentration used (highest concentration that maintained at least 80% cell viability): 48 h; for IC50 (cytotoxicity): 48 h treatment, CCK-8, range 1,000 to 3.9 μg/mL
Experimental: as §1, §2, §3, §4

[2] = THP-1 cells in co-culture with HaCaT cells, 48 h, THP-1, individual replicate values
[3] = 0.976563 μg/mL, THP-1, individual replicate values
[4] = 1.95312 μg/mL, THP-1, individual replicate values
[5] = 3.90625 μg/mL, THP-1, individual replicate values
[6] = 7.8125 μg/mL, THP-1, individual replicate values
[7] = 15.625 μg/mL, THP-1, individual replicate values
[8] = 62.5 μg/mL, THP-1, individual replicate values
[9] = 125 μg/mL, THP-1, individual replicate values
[10] = 250 μg/mL, THP-1, individual replicate values
[11] = 500 μg/mL, THP-1, individual replicate values
[12] = 1000 μg/mL, THP-1, individual replicate values
[13] = 48 h, THP-1, individual replicate values
[14] = 31.25 μg/mL, THP-1, individual replicate values
[15] = THP-1 cells, CCK-8, single (not double) concentration

Row | SMILES | viability at 48 h, 31.25 μg/mL ([1]; Cell viability) [%] | viability at 48 h, 0.976563 μg/mL [1, 2] [%] | viability at 48 h, 1.95312 μg/mL [1, 2] [%] | viability at 48 h, 3.90625 μg/mL [1, 2] [%] | viability at 48 h, 7.8125 μg/mL [1, 2] [%] | viability at 48 h, 62.5 μg/mL [1, 2] [%] | viability at 48 h, 125 μg/mL [1, 2] [%] | viability at 48 h, 250 μg/mL [1, 2] [%] | viability at 48 h, 500 μg/mL [1, 2] [%] | viability at 48 h, 1000 μg/mL [1, 2] [%] | Cell viability (THP-1 cells; [3]) | Cell viability (THP-1 cells; [4]) | Cell viability (THP-1 cells; [5]) | Cell viability (THP-1 cells; [6]) | Cell viability (THP-1 cells; [7]) | Cell viability (THP-1 cells; [8]) | Cell viability (THP-1 cells; [9]) | Cell viability (THP-1 cells; [10]) | Cell viability (THP-1 cells; [11]) | Cell viability (THP-1 cells; [12]) | other results
1 | Sc1nc2ccccc2s1 [2-mercaptobenzothiazole] | 63.3 | 80.2 | 76.6 | 77.2 | 65.9 | 61.4 | 34.2 | 24.8 | 20.8 | 12.9 | 93.5695% | 85.722% | 80.7937% | 76.7668% | 73.0224% | 73.444% | 34.9417% | 27.3318% | 20.0359% | 12.1659% | viability at 48 h, 15.625 μg/mL [1, 2]: 63.3%; Cell viability (THP-1 cells; human, 31.25 μg/mL): 70.7399%
2 | C[S+](C)[O-] [DMSO, Dimethyl sulfoxide] | – | – | – | – | – | – | – | – | – | – | 104.048% and 100.267% | 96% and 94.5143% | 96.1619% and 89.1238% | – | – | – | – | – | 86.8476% and 87.3143% | 91.9905% and 89.9048% | IC50 (cytotoxicity) (THP-1 cells; THP-1 cells): greater than 1,000 μg/mL
3 | O=[N+]([O-])c1ccc(Cl)c([N+](=O)[O-])c1 [DNCB, 2,4-dinitrochlorobenzene] | – | – | – | – | – | – | – | – | – | – | 95.0987% | 97.1973% | 71.1839% | 7.332% | 7.211% | 9.193% | 8.767% | 9.112% | 10.9865% | 11.5516% | viability at 48 h, 0.976563 μg/mL [1, 13]: 102%; viability at 48 h, 1.95312 μg/mL [1, 13]: 88.2%; viability at 48 h, 3.90625 μg/mL [1, 13]: 75.9%; viability at 48 h, 7.8125 μg/mL [1, 13]: 6.82%; viability at 48 h, 15.625 μg/mL [1, 13]: 6.91%; viability at 48 h, 31.25 μg/mL ([1]; 31.25 μg/mL, 48 h, THP-1, individual replicate values, read-out: Cell viability): 7.1%; viability at 48 h, 62.5 μg/mL [1, 13]: 7.52%; viability at 48 h, 125 μg/mL [1, 13]: 8.76%; viability at 48 h, 250 μg/mL [1, 13]: 11%; viability at 48 h, 500 μg/mL [1, 13]: 13.4%; viability at 48 h, 1000 μg/mL [1, 13]: 19.9%; Cell viability (THP-1 cells; [14]): 7.274%
4 | CC(C)O [IPA, Isopropanol] | – | – | – | – | – | – | – | – | – | – | 106.609% and 97.981% | 97.8095% and 92.5429% | 90.3238% and 89.219% | 92.0495% and 89.6476% | 92.1791% and 88.8381% | 91.3838% and 93% | 92.3943% and 110.771% | 91.0095% and 92.9524% | 91.6191% and 88.9333% | 96.9905% and 96.3619% | Cell viability (THP-1 cells; [14]): 92.0943% and 92.7371%; IC50 (cytotoxicity) (THP-1 cells; THP-1 cells): greater than 1,000 μg/mL
5 | CCCCCCCCCCCCOS(=O)(=O)[O-].[Na+] [SDS, Sodium dodecyl sulfate] | – | – | – | – | – | – | – | – | – | – | 99.2381% and 110.076% | 92.6381% and 90.6381% | 73.0476% and 93.5333% | 90.7238% and 93.3905% | 95.4381% and 98.4286% | 37.0381% and 32.0952% | 15.5905% and 18.1809% | 15.9333% and 15.6381% | 15.1524% and 16.781% | 14.1809% and 14.2952% | Cell viability (THP-1 cells; [14]): 85.9333% and 91.0762%; final concentration used (highest concentration that maintained at least 80% cell viability) (THP-1 cells; [15]): 31.25 µg/mL
6 | CC(C)(C)c1cc(O)ccc1O [THBQ, Tert-butylhydroquinone] | 103 | 95.9 | 94.8 | 97.4 | 117 | 47.1 | 29.9 | 26.6 | 18.8 | 15.2 | 94.8298% | 95.9362% | 101.759% | 103.546% | 101.22% | 47.234% | 34.2837% | 20.1277% | 18.8014% | 15.3191% | viability at 48 h, 15.625 μg/mL [1, 2]: 104%; final concentration used (highest concentration that maintained at least 80% cell viability) (THP-1 cells; [15]): 31.25 µg/mL; Cell viability (THP-1 cells; human, 31.25 μg/mL): 104.716%
7 | N#CCCC(Br)(C#N)CBr (stereo not shown) [bromoml, 1,2-dibromo-2,4-dicyanobutane] | 12 | 97 | 97.1 | 100 | 53.3 | 12.2 | 12.2 | 11.9 | 12.9 | 12.4 | 102.88% | 103.993% | 108.767% | 57.1729% | 14.391% | 11.8195% | 12.0752% | – | 12.3985% | 12.3609% | viability at 48 h, 15.625 μg/mL [1, 2]: 13.3%; final concentration used (highest concentration that maintained at least 80% cell viability) (THP-1 cells; [15]): 3.9 µg/mL; Cell viability (THP-1 cells; human, 31.25 μg/mL): 11.782%
8 | O=c1c(-c2ccccc2)c1-c1ccccc1 [diphenylcyclopropenone, Diphenylcyclopropenone] | – | 95.4 | 124 | 36.8 | 21.2 | 26.6 | 28.2 | 29.3 | 30.3 | 30.7 | 95.9291% | 135.468% | 42.1135% | 16.9362% | 18.4255% and 40.305% | 19.5248% | 23.4184% | 23.9858% | 31.4681% | 33.1277% | viability at 48 h, 31.25 μg/mL ([1]; THP-1 cells in co-culture with HaCaT cells, 31.25 μg/mL, 48 h, THP-1, individual replicate values, read-out: Cell viability): 25.4%; Cell viability (THP-1 cells; [14]): 15.5674%; final concentration used (highest concentration that maintained at least 80% cell viability) (THP-1 cells; [15]): 0.98 µg/mL
9 | C=CCc1ccc(O)c(OC)c1 [eugenol, Eugenol] | 89.2 | – | – | – | – | – | – | – | – | – | 95.2766% | 82.8227% | 95.5106% | 87.9007% | 89.6454% | 83.0993% | 50.2837% | 13.5816% | 12.3688% | 8.652% and 19.4894% | viability at 48 h, 0.976563 μg/mL [1, 13]: 96.1%; viability at 48 h, 1.95312 μg/mL [1, 13]: 85.9%; viability at 48 h, 3.90625 μg/mL [1, 13]: 94%; viability at 48 h, 7.8125 μg/mL [1, 13]: 89.2%; viability at 48 h, 15.625 μg/mL [1, 13]: 84%; viability at 48 h, 62.5 μg/mL [1, 13]: 96.6%; viability at 48 h, 125 μg/mL [1, 13]: 54.7%; viability at 48 h, 250 μg/mL [1, 13]: 13.4%; viability at 48 h, 500 μg/mL [1, 13]: 19.5%; final concentration used (highest concentration that maintained at least 80% cell viability) (THP-1 cells; human): 31.2 µg/mL; Cell viability (THP-1 cells; human, 31.25 μg/mL): 101.56%
